Assay results taken from article PMC9191221 (Iranian Journal of Pharmaceutical Research : IJPR, 2022).
Several values for one entry are separate records, joined by “and”; a condition that tells them apart may be missing. Equal entries are not always repeated.

Molecular target: EGFR^T790M (Homo sapiens, UniProt P00533, T790M)
Assay: EGFR-TK assay kit / ADP-Glo kinase assay
Type: biochemical
Details: tested in triplicate

Sequence of EGFR^T790M (P00533 25-1210 T790M): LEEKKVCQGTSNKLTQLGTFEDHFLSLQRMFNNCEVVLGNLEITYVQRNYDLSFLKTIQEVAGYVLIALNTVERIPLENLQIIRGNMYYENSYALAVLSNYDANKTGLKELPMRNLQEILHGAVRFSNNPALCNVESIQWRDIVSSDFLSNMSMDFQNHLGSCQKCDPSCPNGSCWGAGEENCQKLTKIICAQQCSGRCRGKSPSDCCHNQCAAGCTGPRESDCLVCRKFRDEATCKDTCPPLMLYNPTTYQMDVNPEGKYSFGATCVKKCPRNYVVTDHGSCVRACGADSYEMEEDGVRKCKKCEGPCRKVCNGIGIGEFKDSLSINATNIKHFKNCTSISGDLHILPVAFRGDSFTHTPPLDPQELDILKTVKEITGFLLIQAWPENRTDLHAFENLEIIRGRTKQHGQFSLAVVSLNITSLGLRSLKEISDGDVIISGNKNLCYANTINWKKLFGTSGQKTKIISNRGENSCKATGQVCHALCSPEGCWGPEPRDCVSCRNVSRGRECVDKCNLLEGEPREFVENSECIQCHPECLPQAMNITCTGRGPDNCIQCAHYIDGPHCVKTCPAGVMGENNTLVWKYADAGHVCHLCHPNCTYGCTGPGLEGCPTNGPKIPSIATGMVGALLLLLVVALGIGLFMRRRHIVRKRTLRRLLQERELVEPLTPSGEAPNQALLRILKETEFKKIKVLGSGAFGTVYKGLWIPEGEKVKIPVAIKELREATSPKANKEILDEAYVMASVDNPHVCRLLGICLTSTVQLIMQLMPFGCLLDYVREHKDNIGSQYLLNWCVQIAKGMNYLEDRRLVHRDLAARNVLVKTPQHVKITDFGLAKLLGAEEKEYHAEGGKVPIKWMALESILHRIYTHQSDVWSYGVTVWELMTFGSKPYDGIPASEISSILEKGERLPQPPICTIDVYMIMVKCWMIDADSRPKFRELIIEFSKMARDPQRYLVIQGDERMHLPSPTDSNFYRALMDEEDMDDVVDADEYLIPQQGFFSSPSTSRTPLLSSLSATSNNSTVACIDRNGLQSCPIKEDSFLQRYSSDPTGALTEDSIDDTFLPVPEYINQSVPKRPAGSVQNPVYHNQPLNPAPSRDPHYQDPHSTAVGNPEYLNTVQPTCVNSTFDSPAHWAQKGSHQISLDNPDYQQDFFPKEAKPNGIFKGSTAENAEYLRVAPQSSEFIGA

SMILES: O=c1nc(NCc2ccccc2Cl)[nH]c2ccc(Oc3ccccc3)cc12 [Compound 8b, 2-((2-Chlorobenzyl)amino)-6-phenoxyquinazolin-4(1H)-one]
- IC50: 0.37 nM and 1.37 nM
